Experimental data published in patent publication US6875844B1, “Peptide compounds derived from a shifted ORF of the iCE gene” (Institut Gustave Roussy, priority 1999, dated 2005).

Legend:
[1] = system: autologous EBV-transformed B cells; test: Target sensitization assay: 51Cr release lysis by CTL clone 3B8 of peptide-incubated autologous EBV-transformed B cells; format: cell-based, human; details: EBV-transformed B cells incubated with peptide, CTL clone 3B8 effector 30:1, chromium release after 4 h; read-out: Peptide concentration giving semi-maximal lysis
Description: 2000 EBV-transformed cells were incubated and labeled with 51Cr for 1 h in the presence of the HLA-B7-restricted iCE peptide (SPRWWPTCL; SEQ ID NO:2) or another control HLA-B7-restricted peptide (VISTVVANL; SEQ ID NO:9). Clone 3B8 was then added as an effector, in a ratio set at 30:1. Chromium release was measured after 4 h.
The cytolytic activity of the CTLs was determined in a standard ^51Cr release assay as previously described (22). Target cells (RCC and K562 cell lines) were labeled for 1 h with 50 μCi to 100 μCi of ^51Cr (Du Pont, NEN, Boston, Mass.) at 37° C., and 2×10^3 cells were seeded in 96-microwell plates in 100 μl of RPMI supplemented with 5% of FCS. […] The 96-microwell plates were incubated at 37° C. for 4 h, and ^51Cr release was determined in the harvested supernatants. […]
In order to reduce the nucleotide sequence encoding the antigen, several truncated cDNAs were obtained by PCR amplification. […] After examining the corresponding amino acid sequence, all possible nonamers and decamers were synthesized, and their ability to make autologous EBV-transformed B cells sensitive to lysis by 3B8 was evaluated.
Finally, an alternative ORF was found (a+1 translational open reading frame leading to a 453-nt ORF) with three ATGs in nt positions 476, 479 and 803, which encodes a nonamer (SPRWWPTCL) (SEQ ID NO: 2) in the minimum region of nt 763-855. […]

[2] = biological target: T1, HLA-B*0702 (Homo sapiens, UniProt P01889); test: Binding and stability of peptide on T2 cells transfected with HLA-B*0702 (HLA-B7 expression by flow cytometry)
T1 construct: expressed in transfected cells; host or cells: T2 cells
Description: T2 cells were incubated at 26° C. for 16 hours in medium without serum containing peptides at a concentration of 50 μM. Then, the peptides were again added, and the cells were incubated at 37° C. At 30-min or 1-h intervals, aliquots of cells were harvested, and the change in HLA-B7 expression was monitored by flow cytometry using an anti-HLA-B7 mAB (HB59). By way of control, an HLA-A2-restricted HSP70 peptide was used. The peptide SPRWWPTCL is provided in SEQ ID NO: 2.
HLA-A2-binding peptide antigens upregulate the expression of HLA-A2 molecules on T2 cells (37). Similarly, T2 cells transfected with HLA-B*0702 (38) were used to analyze the binding capacity and the stability of the iCE peptide (FIG. 6). At […], the binding of the iCE peptide is stable over time for at least 4 h, unlike the control, which is the HLA-A2-restricted HSP70 peptide (14).

“SPRWWPTCL [nonamer encoded by the +1 alternative ORF of the iCE gene, with HLA-B7-anchoring residues at positions 2, 3 and 9]” was tested, and the EC50 [1] was < 1000 nM, the “Stability of binding to T2 cells transfected with HLA-B*0702 (in words)” value ([2]; T2 cells transfected with HLA-B*0702) was “stable with time” and the “Time over which binding to HLA-B7 is stable” value ([2]; T2 cells transfected with HLA-B*0702, peptide at 50 mM (so in the source), 37° C.) was “at least 4 h”. For the same sequence, the “Binding to HLA-B*0702-presenting molecules (in words)” value ([2]; binding assay by immunofluorescence using transfected T2 cells) was “binds”.
